# Measurements reported in PMC9748189 (Journal of Pain Research, 2022).
# Tests used:
# COX-1 = target: T1, COX-1 (Ovis aries, UniProt P05979); test: recombinant COX-1 enzyme inhibition; assay type: biochemical
# T1 sequence (P05979 25-600): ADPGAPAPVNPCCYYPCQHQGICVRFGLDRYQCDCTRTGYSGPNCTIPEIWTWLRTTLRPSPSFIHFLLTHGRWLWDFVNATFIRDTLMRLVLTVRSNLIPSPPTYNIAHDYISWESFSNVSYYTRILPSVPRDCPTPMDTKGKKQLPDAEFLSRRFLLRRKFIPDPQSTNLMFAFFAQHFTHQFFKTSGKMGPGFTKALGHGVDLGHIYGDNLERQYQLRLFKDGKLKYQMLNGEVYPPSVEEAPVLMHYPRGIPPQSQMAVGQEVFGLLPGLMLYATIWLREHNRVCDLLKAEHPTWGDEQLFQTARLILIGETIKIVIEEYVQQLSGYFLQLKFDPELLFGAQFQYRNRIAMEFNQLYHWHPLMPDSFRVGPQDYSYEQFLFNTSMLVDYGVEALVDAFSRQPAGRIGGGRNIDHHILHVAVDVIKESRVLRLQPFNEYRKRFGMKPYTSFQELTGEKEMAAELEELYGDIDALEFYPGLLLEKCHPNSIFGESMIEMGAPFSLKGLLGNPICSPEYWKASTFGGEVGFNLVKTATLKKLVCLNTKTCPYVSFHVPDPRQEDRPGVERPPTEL
# COX-2 = target: T2, COX-2 (Ovis aries, UniProt P79208); test: recombinant COX-2 enzyme inhibition; assay type: biochemical
# T2 sequence (P79208 17-603): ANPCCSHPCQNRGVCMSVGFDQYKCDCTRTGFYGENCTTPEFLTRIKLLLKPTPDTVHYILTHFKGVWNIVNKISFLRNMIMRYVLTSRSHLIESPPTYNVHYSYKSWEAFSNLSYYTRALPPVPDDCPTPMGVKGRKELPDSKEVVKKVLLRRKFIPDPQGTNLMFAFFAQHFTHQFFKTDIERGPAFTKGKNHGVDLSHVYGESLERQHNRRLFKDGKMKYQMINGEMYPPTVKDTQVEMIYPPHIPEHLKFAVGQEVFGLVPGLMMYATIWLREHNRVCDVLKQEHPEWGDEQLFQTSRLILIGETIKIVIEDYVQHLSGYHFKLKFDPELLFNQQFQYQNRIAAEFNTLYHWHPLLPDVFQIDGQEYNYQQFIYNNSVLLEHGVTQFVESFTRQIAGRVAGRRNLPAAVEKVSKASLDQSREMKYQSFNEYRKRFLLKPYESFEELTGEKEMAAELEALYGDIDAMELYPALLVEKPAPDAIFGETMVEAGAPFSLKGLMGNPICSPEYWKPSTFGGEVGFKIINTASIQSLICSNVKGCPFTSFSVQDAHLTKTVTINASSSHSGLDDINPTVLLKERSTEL
smiles,measurement,setting,value
"CC(=O)Oc1ccc(NCCc2ccc(C(F)(F)F)cc2)cc1C(=O)O [flusalazine, 2-acetoxy-5-(2-4-(trifluoromethyl)-phenethylamino)-benzoic acid]",IC50,COX-1,16.2 µM
same,IC50,COX-2,651 µM
